The record followed here is ChEMBL document CHEMBL3046881, “Precocious Metamorphosis-Inducing Activity of 1-Substituted Imidazoles” (1996).

Holding throughout (format): functional
For test [1], the system named is Bombyx mori. The test is described as follows: Induction of precocious metamorphosis-inducing activity against fourth-instar larvae of Bombyx mori Shunrei x shogetsu at >80 ug treated topically.
Test [2] concerns Bombyx mori. The test is described as follows: Induction of precocious metamorphosis-inducing activity against fourth-instar larvae of Bombyx mori Shunrei x shogetsu compound treated topically.
Test [3] has as its system Bombyx mori. The test is described as follows: Induction of precocious metamorphosis-inducing activity against fourth-instar larvae of Bombyx mori Shunrei x shogetsu at >160 ug treated topically.
Test [4] relates to Bombyx mori. In words: Induction of precocious metamorphosis-inducing activity against fourth-instar larvae of Bombyx mori Shunrei x shogetsu at 40 ug treated topically in presence of 0.01 ug tebufenozide.
The subject of test [5] is Bombyx mori. In words: Induction of precocious metamorphosis-inducing activity against fourth-instar larvae of Bombyx mori Shunrei x shogetsu at 40 ug treated topically in presence of 10 ug methoprene.
The test system of test [6] is Bombyx mori. In words: Induction of precocious metamorphosis-inducing activity against fourth-instar larvae of Bombyx mori Shunrei x shogetsu at 40 ug treated topically.
Test [7] deals with Bombyx mori. The test is described as follows: Induction of precocious metamorphosis-inducing activity against fourth-instar larvae of Bombyx mori Shunrei x shogetsu at >40 ug treated topically.

`CCCCOc1ccc(-n2ccnc2)cc1`: the Activity in test [1] was 0%. The ED50 in test [2] is greater than 80 µg.

Take `CC(C)(C)c1ccc(OCCCn2ccnc2)cc1`: in test [1], the Activity was 20%. The ED50 in test [2] was greater than 80 µg. On to `CCc1ccc(OCCn2ccnc2)cc1`, for which the Activity in test [3] was 11%. The ED50 in test [2] was greater than 160 µg. The compound `c1ccc(OCCCn2ccnc2)cc1` had an Activity in test [1] of 0%. For the same compound, the ED50 in test [2] is greater than 80 µg. As to `CCc1cccc(OCCCn2ccnc2)c1`, the ED50 in test [2] is 36 µg.

Regarding `c1ccc(Oc2ccc(OCCCn3ccnc3)cc2)cc1`, the Activity in test [1] is listed as 0%. In test [2], this compound had an ED50 greater than 80 µg. In test [3], `c1ccc(COc2ccc(OCCCn3ccnc3)cc2)cc1` displayed an Activity of 0%. Moreover, the ED50 in test [2] was greater than 160 µg. Compound `CCCCCCOc1ccc(OCCCn2ccnc2)cc1` returned an ED50 in test [2] of 36 µg. Same read-out and setting: next, `CCCCOc1ccc(OCCCn2ccnc2)cc1`: 27 µg; `CCC(C)c1ccc(OCCCn2ccnc2)cc1` (stereo not given): 91 µg. In the case of `CCCc1ccc(OCCCn2ccnc2)cc1`, the ED50 in test [2] came out at 16 µg. The Activity in test [4] amounted to 0%; in test [5] it was 0%; in test [6], 100%. In the case of `Clc1ccc(OCCCn2ccnc2)cc1`, in test [1], the Activity turned out to be 11%. This compound gave an ED50 in test [2] greater than 80 µg. `CCc1ccccc1OCCCn1ccnc1` yielded an Activity in test [1] of 0%. In test [2], this compound showed an ED50 greater than 80 µg. As for `CCc1ccc(OCCCCn2ccnc2)cc1`, the Activity in test [3] was determined as 20%. Further, the ED50 in test [2] is greater than 160 µg.

Regarding `CCc1ccc(OCCCn2ccnc2)cc1`, in test [2], the ED50 was 17 µg. Compound `CCCCCCCCCCOc1ccc(-n2ccnc2)cc1` displayed an Activity in test [1] of 33%. In test [2], this compound returned an ED50 greater than 80 µg.

For `CCCCCCOc1ccc(-n2ccnc2)cc1`, the ED50 in test [2] stood at 63 µg. For `CCCCCCCCOc1ccc(-n2ccnc2)cc1`, the ED50 in test [2] turned out to be 40 µg. In test [7], `CC(C)=CCCC(C)CCn1ccnc1` (stereo not given) came in with an Activity of 20%. Also, the ED50 in test [2] is greater than 40 µg.

In test [7], `CCCCCCCCn1ccnc1` displayed an Activity of 0%. In test [2], this compound came in with an ED50 greater than 40 µg. On to `CCCCCCCCCCCCn1ccnc1`, for which the ED50 in test [2] turned out to be 15 µg. Also, the Activity in test [4] stood at 0%; in test [5] it was 0%; in test [6], 100%. For the compound `c1ccc(CCn2ccnc2)cc1`, the Activity in test [1] came to 0%. Also, in test [2], the ED50 is greater than 80 µg.

As to `CCCCCCCCCCn1ccnc1`, the ED50 in test [2] worked out at 18 µg. In turn, `CCCCCCCCCCCCCCn1ccnc1` returned an ED50 in test [2] of 30 µg. Turning to `c1ccc(Cn2ccnc2)cc1` [BENZYLIMIDAZOLE], the Activity in test [1] worked out at 0%. Moreover, the ED50 in test [2] was greater than 80 µg.
